Measurements as given in PubChem BioAssay (NCI).
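Tested at 5 concentrations; 48 h exposure; 96-well plates; endpoints linearly interpolated, else capped at highest concentration. Here, GI50 denotes the concentration required for 50% inhibition of growth. At the TGI there is no net growth.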

Tests used:
Assay in all cases: NCI anticancer screen, dose series, 48 h
[1] = system: UACC-62 melanoma
[2] = system: LOX IMVI melanoma
[3] = system: SF-539 CNS
[4] = system: T-47D breast
[5] = system: SR leukemia
[6] = system: MDA-N
[7] = system: PC-3 prostate
[8] = system: KM20L2 colon
[9] = system: 786-0 renal
[10] = system: DMS 114 small cell lung
[11] = system: HOP-18 NSCLC
[12] = system: M19-MEL melanoma
[13] = system: DMS 273 small cell lung

Compound | TGI [1] | TGI [2] | TGI [3] | TGI [4] | TGI [5] | TGI [6] | TGI [7] | TGI [8] | TGI [9] | TGI [10] | TGI [11] | TGI [12] | TGI [13] | GI50 [1] | GI50 [2] | GI50 [7] | GI50 [3] | GI50 [4] | GI50 [5]
COc1ccc2c3c([nH]c2c1)CCN(Cc1ccccc1)C3 | > 100 µM | 38 µM | 32.7 µM | 69.1 µM | 40.3 µM | – | – | – | – | – | – | – | – | – | – | – | – | – | –
Cc1nc2[nH]ncn2c(=O)c1CCO | > 10 µM | > 10 µM | > 10 µM | > 10 µM | > 10 µM | > 10 µM | > 10 µM | – | – | – | – | – | – | – | – | – | – | – | –
CC(CN(C)C)C(=O)c1ccccc1 (configuration not stated) | > 57.4 µM | 31.7 µM | > 100 µM | – | 60.2 µM | – | – | > 87.5 µM | > 52.3 µM | > 57.8 µM | > 100 µM | 35.4 µM | > 100 µM | – | – | – | – | – | –
COc1cc(C2c3cc4c(cc3[C@@H](Oc3ccc(F)cc3)C3COC(=O)[C@H]23)OCO4)cc(OC)c1O (some centres not stated) | > 100 µM | > 100 µM | – | – | – | – | – | > 100 µM | – | – | > 100 µM | 40.4 µM | 47.2 µM | – | – | – | – | – | –
COc1ccc(C2C3CCCC(C3=O)C(c3ccc(OC)cc3)N2N=O)cc1 (configuration not stated) | 97.4 µM | 32.5 µM | – | – | – | – | – | > 100 µM | – | 47.9 µM | 31 µM | 99.2 µM | 43.6 µM | – | – | – | – | – | –
ClCc1cccc(CSc2ncnc3c2ncn3Cc2cccc(CCl)c2)c1 | 3.46 µM | 2.74 µM | 4.31 µM | 5.12 µM | 9.89 µM | – | 3.34 µM | – | – | – | – | – | – | 1.76 µM | 1.4 µM | 1.67 µM | 1.58 µM | 2.31 µM | 2.82 µM
COc1ccc2c(c1)c(=O)c1c(NCCN(C)C)ccc3nnn2c31 | 17.8 µM | 2.9 µM | 15.9 µM | – | 2.9 µM | – | – | 14.7 µM | 14.8 µM | 19.4 µM | 7.35 µM | 20.8 µM | – | – | – | – | – | – | –
CCOC(=O)Cc1cnc(NC(NC(=O)CC)(C(F)(F)F)C(F)(F)F)s1 | > 100 µM | > 100 µM | > 100 µM | > 100 µM | > 100 µM | > 100 µM | – | – | – | – | – | – | – | – | – | – | – | – | –
COc1ccc(N2C(=O)C3c4[nH]c5ccc(F)cc5c4C4CCC(C(C)(C)C)CC4C3C2=O)cc1 (configuration not stated) | > 10 µM | – | > 10 µM | > 10 µM | > 10 µM | > 10 µM | > 10 µM | – | – | – | – | – | – | – | – | – | – | – | –
O=C(NCCNc1nccc(-c2c(-c3cccc(O)c3)nc3sccn23)n1)c1ccccc1 | 1.37 µM | 17.8 µM | 36.8 µM | 49 µM | 50 µM | – | 65.7 µM | – | – | – | – | – | – | 0.211 µM | 3.22 µM | 11.9 µM | 11.3 µM | 11 µM | 5.68 µM
O=C(NNS(=O)(=O)c1ccccc1)c1cccnc1 | > 100 µM | > 100 µM | > 100 µM | > 100 µM | – | > 100 µM | > 100 µM | – | > 100 µM | – | – | – | – | – | – | – | – | – | –
